Consider 1 sequence from publication PMC10724200, “A peptide derived from interleukin-10 exhibits potential anticancer activity and can facilitate cell targeting of gold nanoparticles loaded with anticancer therapeutics” (Communications Chemistry, 2023).

The target of assay [1] is T1, recombinant receptor human IL-10Ra protein (Homo sapiens, UniProt Q13651).
T1 sequence (Q13651 22-578): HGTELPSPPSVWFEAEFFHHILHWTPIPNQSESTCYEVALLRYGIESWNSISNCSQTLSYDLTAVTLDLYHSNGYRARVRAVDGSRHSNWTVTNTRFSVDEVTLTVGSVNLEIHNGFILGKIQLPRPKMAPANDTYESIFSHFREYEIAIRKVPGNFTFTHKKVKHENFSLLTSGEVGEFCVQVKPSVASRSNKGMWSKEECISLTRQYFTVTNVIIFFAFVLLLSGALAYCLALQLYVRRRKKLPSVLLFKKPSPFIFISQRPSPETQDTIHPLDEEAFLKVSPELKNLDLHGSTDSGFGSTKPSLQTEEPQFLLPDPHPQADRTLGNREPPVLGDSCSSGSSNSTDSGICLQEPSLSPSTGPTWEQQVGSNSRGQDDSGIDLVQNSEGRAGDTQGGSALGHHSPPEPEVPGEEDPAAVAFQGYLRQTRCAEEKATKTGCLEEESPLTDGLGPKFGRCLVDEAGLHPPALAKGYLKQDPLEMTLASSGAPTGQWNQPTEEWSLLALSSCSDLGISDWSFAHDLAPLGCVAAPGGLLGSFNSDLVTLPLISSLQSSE
Put plainly: Biolayer interferometry kinetic assay, binding to IL-10Ra. Conditions: read-out: ka (association constant). The protocol: (§1) Biolayer interferometry (BLI) was applied to analyze peptide–receptor protein interactions. BLI was performed with a ForteBio Octet RED96e System (Sartorius AG, Göttingen, Germany) by using high-precision streptavidin and biosensors. The biosensors were hydrated in a plate for 15 min and then loaded with 10 μg/mL recombinant receptor human IL-10Ra protein and incubated for 150 s. […] After the association step, the biosensor was shifted to the dissociation buffer, phosphate-buffered saline (PBS) with 0.05% Tween20, for dissociation. Dissociation was recorded until equilibrium was reached (120 s).
To measure the binding ability of the designed and negative control peptides (NM25, NK20, NK20a, and control scramble peptide CG20) to the receptor IL-10Ra in vitro, BLI experiments were performed. […] When binding with IL-10Ra, the association constant (ka) of NK20 and NK20a was 1.02 × 10^4 (1/Ms) and 8.14 × 10^3 (1/Ms), respectively. The ka values of the refined peptides were approximately 12-fold higher than that of NM25. […] The equilibrium dissociation constant (KD) of NK20a interactions with IL-1R1was approximately 2000 times greater than that with IL-10Ra, and the calculated dissociation constant of NK20a interactions with IL-1R1 was to be 5000 times greater than that with IL-10Ra interactions (Table 2). […] As a result, NK20a was used for further investigations in this study.
Fig. 3 BLI kinetic assays of the designed peptides binding to the receptor IL-10Ra. Wavelength shift curves show the association and dissociation of the designed peptides (a) NM25, (b) NK20, (c) NK20a, (d) CG20 binding to the IL-10 receptor, and (e) NK20a binding to a control receptor IL-1R1 at various concentrations. Dissociation was recorded at 120 s after the binding started (black dotted line).

In assay [2] the target is T2, IL-1R1 (Homo sapiens, UniProt P14778).
T2 sequence (P14778 18-569): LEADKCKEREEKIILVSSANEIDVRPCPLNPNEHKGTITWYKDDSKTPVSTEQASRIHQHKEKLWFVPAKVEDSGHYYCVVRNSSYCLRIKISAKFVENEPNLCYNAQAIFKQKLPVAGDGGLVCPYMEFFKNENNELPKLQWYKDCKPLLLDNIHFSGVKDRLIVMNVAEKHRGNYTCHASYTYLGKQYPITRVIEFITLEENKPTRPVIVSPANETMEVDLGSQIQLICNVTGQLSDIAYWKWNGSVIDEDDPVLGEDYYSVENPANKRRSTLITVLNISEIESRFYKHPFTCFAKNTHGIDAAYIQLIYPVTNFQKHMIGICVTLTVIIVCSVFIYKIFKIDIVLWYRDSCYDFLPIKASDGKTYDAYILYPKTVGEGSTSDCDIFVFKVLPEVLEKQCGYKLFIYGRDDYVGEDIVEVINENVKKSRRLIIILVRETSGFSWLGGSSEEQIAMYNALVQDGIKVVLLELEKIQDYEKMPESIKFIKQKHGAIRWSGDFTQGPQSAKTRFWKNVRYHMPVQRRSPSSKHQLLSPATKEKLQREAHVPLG
Briefly: Biolayer interferometry kinetic assay, binding to control receptor IL-1R1. To be noted: read-out: ka (association constant). The protocol:
as §1
To measure the binding ability of the designed and negative control peptides (NM25, NK20, NK20a, and control scramble peptide CG20) to the receptor IL-10Ra in vitro, BLI experiments were performed. […] When binding with IL-10Ra, the association constant (ka) of NK20 and NK20a was 1.02 × 10^4 (1/Ms) and 8.14 × 10^3 (1/Ms), respectively. […] The equilibrium dissociation constant (KD) of NK20a interactions with IL-1R1was approximately 2000 times greater than that with IL-10Ra, and the calculated dissociation constant of NK20a interactions with IL-1R1 was to be 5000 times greater than that with IL-10Ra interactions (Table 2). […]
Fig. 3 BLI kinetic assays of the designed peptides binding to the receptor IL-10Ra. […] Dissociation was recorded at 120 s after the binding started (black dotted line).

Ends that are not written are not given here.

Turning to NMLRNLRNAFSRVKTFFQMK [NK20a], the kon in assay [1] was 8140 M⁻¹ s⁻¹; in assay [2], 18300 M⁻¹ s⁻¹.
